Test results taken from article PMC7897990, “TriTOX: A novel Trichomonas vaginalis assay platform for high-throughput screening of compound libraries” (International Journal for Parasitology: Drugs and Drug …, 2021).
Like-named read-outs stand apart in the source and are kept apart here.

Tests used:
[1] = tested on: Trichomonas vaginalis G3 trophozoites; settings: for T.vaginalis_Absorbance_Rep1: replicate 1, raw absorbance; for T.vaginalis_Absorbance_Rep2: replicate 2, raw absorbance
[2] = tested on: nontumorigenic neonatal foreskin fibroblast (NFF) cell line
[3] = HTS, parasite screen at 1 µg/mL, replicate 1
[4] = HTS, parasite screen at 1 µg/mL
[5] = HTS, parasite screen at 1 µg/mL, replicate 2
[6] = HTS single concentration, parasite screen 1 µg/mL, replicate 1
[7] = HTS single concentration, parasite screen 1 µg/mL, replicate 2
[8] = NFF_NS1 screen 5 µg/mL, single concentration
[9] = replicate 1, parasite screen at 1 µg/mL
[10] = replicate 2, parasite screen at 1 µg/mL
[11] = HTS replicate 1, parasite screen 1 µg/mL
[12] = HTS replicate 2, parasite screen 1 µg/mL
[13] = NFF fibroblasts, single concentration 5 µg/mL

## CC[C@H]1OC(=O)[C@H](C)[C@@H](O[C@H]2C[C@@](C)(OC)[C@@H](O)[C@H](C)O2)[C@H](C)[C@@H](O[C@@H]2O[C@H](C)C[C@H](N(C)C)[C@H]2O)[C@](C)(O)C[C@@H](C)C(=NO)[C@H](C)[C@@H](O)[C@]1(C)O [Erythromycin A oxime]
[1]; [3]
  T.vaginalis_%inb_Rep1: 3.82%
[1]; [4]
  T.vaginalis_Absorbance_Rep1: 0.78
  T.vaginalis_Absorbance_Rep2: 0.678
[1]; [5]
  T.vaginalis_%inb_Rep2: 4.19%
[2]; NFF_NS1 screen at 5 µg/mL
  NFF_Activity: I (otherwise these were reported as inactive (I))

## Cc1c2c(c(O)c3c(O)cccc13)C(=O)[C@]1(O)C(=O)C(C(N)=O)=C(O)[C@@H](N(C)C)[C@@H]1C2.Cl [BIA-A1340]
[1]; [6]
  T.vaginalis_%inb_Rep1: 6.73%
[1]; [7]
  T.vaginalis_%inb_Rep2: 9.54%
[2]; [8]
  NFF_Activity: I (otherwise these were reported as inactive (I))

## COc1oc([C@H]2C/C(=C/C(C)=C/c3ccc([N+](=O)[O-])cc3)CO2)c(C)c(=O)c1C [BIA-A1009]
[1]; [6]
  T.vaginalis_%inb_Rep1: 12.82%
[1]; [7]
  T.vaginalis_%inb_Rep2: 5.78%
[2]; [8]
  NFF_Activity: I (otherwise these were reported as inactive (I))

## O=c1cc2ccocc-2o1 [BIA-K1792]
[1]; [9]
  T.vaginalis_%inb_Rep1: 12.93%
[1]; [10]
  T.vaginalis_%inb_Rep2: 13.15%
[2]; NFF cells, screen at 5 µg/mL
  NFF_Activity: I (otherwise these were reported as inactive (I))

## COC(=O)c1cc(O)cc(OC)c1Oc1cc(C)cc(O)c1C(=O)O [BIA-A1008]
[1]; [6]
  T.vaginalis_%inb_Rep1: 16.05%
[1]; [7]
  T.vaginalis_%inb_Rep2: 13.59%
[2]; [8]
  NFF_Activity: I (otherwise these were reported as inactive (I))

## CCCCC[C@@H]1CC[C@H](C)CCCCC(=O)N(C)[C@@H](Cc2ccc(OCCO)cc2)C(=O)O1 [PF1163B]
[1]; [11]
  T.vaginalis_%inb_Rep1: 17.85%
[1]; [12]
  T.vaginalis_%inb_Rep2: 14.30%
[2]; [13]
  NFF_Activity: I (otherwise these were reported as inactive (I))

## COc1ccc2c(c1OC)C(=O)O[C@@H]2[C@H]1c2cc3c(cc2CCN1C)OCO3 [BIA-H1954]
[1]; [9]
  T.vaginalis_%inb_Rep1: 11.27%
[1]; [10]
  T.vaginalis_%inb_Rep2: 6.40%
[2]; NFF cells, screen at 5 µg/mL
  NFF_Activity: I (otherwise these were reported as inactive (I))

## CC[C@H]1OC(=O)[C@H](C)[C@@H](O[C@H]2C[C@@](C)(OC)[C@@H](O)[C@H](C)O2)[C@H](C)[C@@H](O[C@@H]2O[C@H](C)C[C@H](N(C)C)[C@H]2O)[C@@]2(C)CC(C)=C(O2)[C@H](C)[C@@H](O)[C@]1(C)O [Erythromycin A enol ether]
[1]; [3]
  T.vaginalis_%inb_Rep1: 5.17%
[1]; [4]
  T.vaginalis_Absorbance_Rep1: 0.805
  T.vaginalis_Absorbance_Rep2: 0.881
[1]; [5]
  T.vaginalis_%inb_Rep2: 18.87%
[2]; NFF_NS1 screen at 5 µg/mL
  NFF_Activity: I (otherwise these were reported as inactive (I))

## CS(=O)(=O)c1ccc([C@@H](O)[C@@H](CO)NC(=O)C(Cl)Cl)cc1 [BIA-T1486]
[1]; parasite screen at 1 µg/mL, replicate 1
  T.vaginalis_%inb_Rep1: 8.02%
[1]; parasite screen at 1 µg/mL, replicate 2
  T.vaginalis_%inb_Rep2: 12.00%
[2]; NFF_NS1 screen at 5 µg/mL, NFF cells
  NFF_Activity: I (otherwise these were reported as inactive (I))

## CCC1OC(=O)C(C)C(OC2CC(C)(OC)C(O)C(C)O2)C(C)C(OC2OC(C)CC(N(C)C)C2O)C2(C)CC(C)C3(O2)OC1(C)C(O)C3C (stereo not drawn) [BIA-A1348]
[1]; [6]
  T.vaginalis_%inb_Rep1: 15.19%
[1]; [7]
  T.vaginalis_%inb_Rep2: 13.67%
[2]; [8]
  NFF_Activity: I (otherwise these were reported as inactive (I))

## COc1cc2c(c3oc(=O)c4c(c13)CCC4=O)[C@@H]1CCO[C@@H]1O2 [BIA-A1233]
[1]; [6]
  T.vaginalis_%inb_Rep1: 13.46%
[1]; [7]
  T.vaginalis_%inb_Rep2: 11.14%
[2]; [8]
  NFF_Activity: I (otherwise these were reported as inactive (I))

## CCCCCCCCCCCCCCCCCC(=O)N[C@H]1CCOC1=O [Octadecanoyl-L-homoserine lactone]
[1]; [11]
  T.vaginalis_%inb_Rep1: 12.02%
[1]; [12]
  T.vaginalis_%inb_Rep2: 13.47%
[2]; [13]
  NFF_Activity: I (otherwise these were reported as inactive (I))

## COc1ccc2c(c1OC)C(=O)O[C@@H]2[C@H]1c2c(cc3c(c2OC)OCO3)CCN1C [Narcotine]
[1]; [11]
  T.vaginalis_%inb_Rep1: 11.80%
[1]; [12]
  T.vaginalis_%inb_Rep2: 11.76%
[2]; [13]
  NFF_Activity: I (otherwise these were reported as inactive (I))

## CN1CCC2(c3cccc4c3NC3N(C)CCC43C34CCN(C)C3Nc3ccccc34)c3ccccc3NC12 (stereo not drawn) [BIA-H1948]
[1]; [9]
  T.vaginalis_%inb_Rep1: 8.81%
[1]; [10]
  T.vaginalis_%inb_Rep2: 5.36%
[2]; NFF cells, screen at 5 µg/mL
  NFF_Activity: A (active (A) compounds having >25% inhibitory activity)

## C/C=C/[C@@H]1C=C[C@@H]2C[C@H](C)CC[C@H]2[C@]1(C)/C(O)=C1/C(=O)[C@@H](CO)N(C)C1=O [Epiequisetin]
[1]; [3]
  T.vaginalis_%inb_Rep1: 11.85%
[1]; [4]
  T.vaginalis_Absorbance_Rep1: 0.929
  T.vaginalis_Absorbance_Rep2: 0.68
[1]; [5]
  T.vaginalis_%inb_Rep2: 4.34%
[2]; NFF_NS1 screen at 5 µg/mL
  NFF_Activity: I (otherwise these were reported as inactive (I))
